Drawing on ChEMBL document CHEMBL3112514, “Insights into antioxidant activity of 1-adamantylthiopyridine analogs using multiple linear regression” (Eur J Med Chem, 2014), this text covers inhibition and Activity for nine compounds.

Usually inhibition stands for the share of the control response that was lost under treatment.

Test system in the first assay: not listed separately
Nature of the assay: Antioxidant activity assessed as inhibition of photoreduction of nitro blue tetrazolium after 7 mins by SOD activity assay. It counts as functional. The arrangement: concentration or dose not given beside the values.
As to `N#Cc1cccnc1SC12CC3CC(CC(C3)C1)C2`, the inhibition turned out to be 17.3%.
For the compound `Brc1cncc(SC23CC4CC(CC(C4)C2)C3)c1`, the inhibition was found to be 53.3%.
Still for that read-out and setting: with `NC(=O)c1cccnc1SC12CC3CC(CC(C3)C1)C2` the figure was 15.4%.
Take `CCOc1cccnc1SC12CC3CC(CC(C3)C1)C2`: the inhibition is 31.8%.
Same read-out and setting: with `CC(=O)Oc1cccnc1SC12CC3CC(CC(C3)C1)C2` the figure was 16.8%; with `O=C(O)c1cccnc1SC12CC3CC(CC(C3)C1)C2`, 15.4%.
Same read-out and setting: in the case of `Brc1cccnc1SC12CC3CC(CC(C3)C1)C2` it was 17.2%; in that of `Oc1ccc(SC23CC4CC(CC(C4)C2)C3)nc1`, 45.5%.

For the next assay, the system named is Radical scavenging activity. Nature of the assay: Antioxidant activity assessed as DPPH radical scavenging activity. It counts as functional. Details: concentration or dose not given beside the values. In general terms: The DPPH test is a chemical assay of radical scavenging.
For the compound `CC(=O)N(C(C)=O)c1cccnc1SC12CC3CC(CC(C3)C1)C2`, the Activity turned out to be 17.7%.
Regarding `N#Cc1cccnc1SC12CC3CC(CC(C3)C1)C2`, the Activity stood at 0.3%.
`Brc1cncc(SC23CC4CC(CC(C4)C2)C3)c1`: the Activity turned out to be 17.1%.
The same measure, in the same setting: with `NC(=O)c1cccnc1SC12CC3CC(CC(C3)C1)C2` the figure was 0.57%.
As to `CCOc1cccnc1SC12CC3CC(CC(C3)C1)C2`, the Activity amounted to 14.2%.
Still for that read-out and setting: with `CC(=O)Oc1cccnc1SC12CC3CC(CC(C3)C1)C2` the figure was 7.03%; with `O=C(O)c1cccnc1SC12CC3CC(CC(C3)C1)C2`, 33.2%; with `Brc1cccnc1SC12CC3CC(CC(C3)C1)C2`, 21.1%.
The same measure, in the same setting: with `Oc1ccc(SC23CC4CC(CC(C4)C2)C3)nc1` the figure was 0.3%.
